Patent US9364453B2, “Method of treating postural reflex abnormality caused by parkinson's disease” (Lundbeck NA Ltd., priority 2011, dated 2016)

How the values were obtained:
[1] = molecular target: T1, aromatic amino acid decarboxylase (AADC) (Homo sapiens, UniProt P20711); conditions: as compared to L-DOPA; cited from earlier work
T1 sequence (P20711 1-480): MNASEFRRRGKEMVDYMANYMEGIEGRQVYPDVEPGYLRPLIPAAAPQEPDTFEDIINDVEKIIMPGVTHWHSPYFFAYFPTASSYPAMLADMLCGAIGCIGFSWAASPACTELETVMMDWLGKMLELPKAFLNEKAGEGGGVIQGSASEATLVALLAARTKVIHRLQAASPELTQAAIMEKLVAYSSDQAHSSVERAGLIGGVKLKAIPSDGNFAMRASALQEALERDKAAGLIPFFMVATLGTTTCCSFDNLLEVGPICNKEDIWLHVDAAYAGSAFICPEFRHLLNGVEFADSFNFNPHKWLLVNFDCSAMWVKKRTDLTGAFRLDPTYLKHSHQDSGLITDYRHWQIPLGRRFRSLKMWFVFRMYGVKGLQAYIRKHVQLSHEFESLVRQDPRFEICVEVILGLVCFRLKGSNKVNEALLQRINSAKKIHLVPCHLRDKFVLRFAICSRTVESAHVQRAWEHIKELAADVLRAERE

patients with PA disease = conditions: cited from earlier work
[2] = tested on: PA disease patient with pure akinesia and chief complaint of freezing of gait; test: Example 2: treatment of a PA disease patient with pure akinesia and chief complaint of freezing of gait; format: in vivo, human; conditions: person; DOPS 300 mg/day in 3 portions
Protocol: Treatment effect of therapeutic agent of the present invention for PA disease patient with pure akinesia and chief complaint of freezing of gait A PA disease patient with pure akinesia and chief complaint of freezing of gait: person. a) DOPS (300 mg/day) was administered in 3 portions, but ineffective. b) DOPS (300 mg/day) and Comtan® (300 mg/day) as a COMT inhibitor were simultaneously administered in 3 portions each. […] Combined use of DOPS and Comtan® (COMT inhibitor) was effective even in a treatment without using an L-DOPA preparation and a dopamine receptor stimulator.

[3] = as compared to L-DOPA; cited from earlier work
[4] = tested on: PA disease patient with pure akinesia and chief complaint of freezing of gait, not responsive to L-DOPA preparation; test: Example 3: treatment of a PA disease patient with pure akinesia and freezing of gait, not responsive to L-DOPA preparation; format: in vivo, human; conditions: person, DOPS 600 mg/day in 3 portions
From the text: A combined use of DOPS and a COMT inhibitor was effective for the “freezing of gait symptom” for which L-DOPA preparation is not effective.

For `N[C@H](C(=O)O)[C@H](O)c1ccc(O)c(O)c1` [DOPS, L-threo-3,4-dihydroxy-phenylserine], the decarboxylation reaction rate [1] is given as “low”, the “clinical trial results versus placebo” value (patients with PA disease; double-blind comparison, DOPS in optically active form) is given as “significantly superior to that of placebo” and the efficacy rate (patients with PA disease; in vivo) is given as “not necessarily high”. For the same compound, the “effect on freezing of gait” value [2] was “ineffective”, the “transferability into the brain” value [3] was “low” and the “effect on freezing of gait” value [4] was “slight improvement effect”.
